Our source for the Kd values is publication PMC11077371, “Ciliogenesis-associated Kinase 1 Promotes Breast Cancer Cell Proliferation and Chemoresistance via Phosphorylating ERK1” (International Journal of Biological Sciences, 2024).

The target in the assay is T1, CILK1 (Homo sapiens, UniProt Q9UPZ9).
T1 construct: purchased protein (Abcam ab101774)
T1 sequence (Q9UPZ9 1-632): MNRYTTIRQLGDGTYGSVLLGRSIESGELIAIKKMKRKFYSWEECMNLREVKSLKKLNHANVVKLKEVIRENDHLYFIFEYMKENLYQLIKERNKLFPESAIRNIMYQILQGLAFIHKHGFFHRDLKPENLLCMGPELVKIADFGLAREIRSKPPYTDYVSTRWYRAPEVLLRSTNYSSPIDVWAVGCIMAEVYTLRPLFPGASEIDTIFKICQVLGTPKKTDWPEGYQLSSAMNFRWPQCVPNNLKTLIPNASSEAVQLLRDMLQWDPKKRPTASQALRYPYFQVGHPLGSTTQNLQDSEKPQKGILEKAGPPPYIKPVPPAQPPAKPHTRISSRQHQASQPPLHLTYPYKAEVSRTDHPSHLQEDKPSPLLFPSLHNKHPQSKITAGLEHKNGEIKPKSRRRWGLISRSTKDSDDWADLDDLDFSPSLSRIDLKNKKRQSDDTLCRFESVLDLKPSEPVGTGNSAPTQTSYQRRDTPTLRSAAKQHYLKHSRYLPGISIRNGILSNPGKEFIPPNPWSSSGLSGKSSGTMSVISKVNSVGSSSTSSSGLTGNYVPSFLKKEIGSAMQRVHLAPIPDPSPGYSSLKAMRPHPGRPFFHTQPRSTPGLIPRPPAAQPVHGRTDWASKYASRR
Description: surface plasmon resonance, […] Langmuir fit. The assay is classed as binding. Particulars: 3D Dextran chip; 1.5625-25 μM analyte.

A word on the Kd: it is the concentration at which binding is half-saturated. Higher therefore signals weaker binding. `CCc1ccc2nc(Nc3nc(C)c(Cc4ccc(C)cc4)c(=O)[nH]3)nc(C)c2c1` [CILK1-C30] displayed a Kd of 108 nM.
